Consider five compounds from patent publication US20020156094A1, “Sulfonamide interleukin-1beta converting enzyme inhibitors” (Warner-Lambert Company, priority 1996, published 2002).

The target in one series is T1, Ich-2 (Caspase-4) (Homo sapiens, UniProt P49662).
T1 sequence (P49662 81-270 limits assumed): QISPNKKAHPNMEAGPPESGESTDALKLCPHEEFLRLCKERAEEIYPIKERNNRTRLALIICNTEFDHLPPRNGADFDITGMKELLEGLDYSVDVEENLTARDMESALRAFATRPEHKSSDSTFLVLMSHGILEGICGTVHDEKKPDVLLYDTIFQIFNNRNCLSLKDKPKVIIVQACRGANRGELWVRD
T1 sequence (P49662 290-377 limits assumed): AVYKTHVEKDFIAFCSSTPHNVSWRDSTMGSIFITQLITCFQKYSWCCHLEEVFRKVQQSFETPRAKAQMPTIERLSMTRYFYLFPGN
Put plainly: Ich-2 (Caspase-4) Colorimetric Dose-Response (IC50) Assay. It is filed as biochemical. Conditions: enzyme 64 nM, substrate Ac-Leu-Glu-Val-Asp-pNA. On the procedure: (§1) Diluted inhibitor stocks are prepared by two-fold serial dilution from a primary stock whose concentration is selected (based on screening results or on prior attempts at IC50 evaluation) to achieve approximately 95% inhibition in the most concentrated well. Aliquots of each dilution are transferred to a microtitre plate in triplicate.
(§2) ICE enzyme is diluted to approximately 24 nM in HGE buffer (100 mM HEPES pH 7.5, 0.5 mM EDTA, 20% glycerol, 0.1% Bovine Serum Albumin (BSA)), and activated by adding dithiothreitol (DTT) to a final concentration of 5 mM. The activated enzyme is then aliquoted into wells containing inhibitor or vehicle, and the plate is preincubated for 60 minutes at ambient temperature. Substrate (Ac-Tyr-Val-Ala-Asp-pNA) is added to each well to a final concentration of 50 μM, and plates are placed in the microtitre plate-reader thermostated to 25° C. Beginning 5 minutes after addition of substrate, absorbance (405 nm) of wells is monitored for 1 hour, and activity is calculated as the mean rate of change in absorbance during this interval.
Ich-2 (Caspase-4) Colorimetric Dose-Response (IC50) Assay
Inhibition of Ich-2 enzyme is assayed as described above for ICE, except that enzyme is used at 64 nM, and 60 µM of the Ich-2-specific substrate Ac-Leu-Glu-Val-Asp-pNA is used instead of the ICE substrate Ac-Tyr-Val-Ala-Asp-pNA.

Series [1] concerns the target T2, ICE (interleukin-1β converting enzyme, Caspase-1) (Homo sapiens, UniProt P29466).
T2 sequence (P29466 120-297 limits assumed): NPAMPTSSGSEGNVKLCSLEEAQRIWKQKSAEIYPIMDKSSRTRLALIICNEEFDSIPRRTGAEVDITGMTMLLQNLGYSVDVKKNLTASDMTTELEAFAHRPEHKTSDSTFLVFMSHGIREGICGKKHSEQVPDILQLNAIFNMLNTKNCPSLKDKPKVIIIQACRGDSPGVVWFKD
T2 sequence (P29466 317-404 limits assumed): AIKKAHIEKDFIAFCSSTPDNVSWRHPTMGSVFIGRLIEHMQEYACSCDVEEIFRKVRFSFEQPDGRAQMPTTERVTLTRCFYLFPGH
Put plainly: ICE Ki fluorescence assay (Ac-Tyr-Val-Ala-Asp-AMC hydrolysis). The class given is biochemical. As to conditions: ICE 0.24 nM, 15 μM Ac-Tyr-Val-Ala-Asp-AMC, reversible competitive model. Here is the method: Substrate hydrolysis is monitored for 300 seconds by observing the fluorescence of released AMC using excitation at 380 nm and emission at 460 nm. Mean rates of substrate hydrolysis are evaluated by linear-regression analysis of the fluorescence vs time traces. To evaluate Ki, plots of percent inhibition vs inhibitor concentration are fit by non-linear regression to a reversible, competitive model: [formula]
Where the competition factor (1+[S]/KM)=2.

Series [2] has as its target T2, ICE (interleukin-1β converting enzyme, Caspase-1). Put plainly: ICE Colorimetric Dose-Response (IC50) Assay. The class given is biochemical. Conditions: ICE approx. 24 nM, 60 min preincubation, 50 μM Ac-Tyr-Val-Ala-Asp-pNA, 25° C. On the procedure:
ICE Colorimetric Dose-Response (IC50) Assay
as §1, §2

Values joined by “and” are separate entries in the source; they are usually repeats but may differ in a detail not shown here. Equal entries are not always repeated.

The compound `O=C(O)CC(NC(=O)OCc1ccccc1)C(=O)CNS(=O)(=O)CCCc1ccccc1` (stereo not shown) [Example 2b, 3-Benzloxycarbonylamino-4-oxo-5-(3-phenylpropane-1-sulfonylamino)-pentanoic acid] yielded a melting point of 96 to 104 °C. Further, half-maximal inhibition on Ich-2 (Caspase-4) (IC50) required 8590 µM. Further, in series [1], the Ki is 34.5 µM and 32 µM. For the same compound, the half-maximal inhibitory concentration (IC50) in series [2] is 245 µM.

In the case of `CC(NC(=O)C(NC(=O)OCc1ccccc1)C(C)C)C(=O)NC(CC(=O)O)C(=O)CNS(=O)(=O)CCc1ccccc1` (stereo not shown) [Example 3a, 3-[2-(2-Benzyloxycarbonylamino-3-methyl-butyrylamino)-propionylamino]-4-oxo-5-(2-phenyl-ethanesulfonylamino)-pentanoic acid], the IC50 was found to be 18 µM against Ich-2 (Caspase-4) and 0.072 µM in series [2]. In series [1], this compound showed a Ki of 0.007 µM.

As for `CC(C)C(NC(=O)C(CCC(=O)O)NC(=O)OCc1ccccc1)C(=O)NC(CC(=O)O)C(=O)CNS(=O)(=O)CCc1ccccc1` (stereo not shown) [Example 3b, 3-[2-(2-Benzyloxycarbonylamino-4-carboxy-butyrylamino)-3-methyl-butyrylamino]-4-oxo-5-(2-phenyl-ethanesulfonylamino)-pentanoic acid], the values for the IC50 (on Ich-2 (Caspase-4); in series [2]) were 4.2 µM and 0.025 µM, respectively. The compound further gave a Ki in series [1] of 0.013 µM.

As to `CC1(C)C2CCC1(CS(=O)(=O)NCC(=O)C(CC(=O)O)NC(=O)OCc1ccccc1)C(=O)C2` [Example 2l, 3-Benzyloxycarbonylamino-5-(7.7-dimethyl-2-oxo-bicyclo[2.2.1]hept-1-(S)-ylmethanesulfonylamino)-4-oxo-pentanoic acid], the values for the IC50 (at Ich-2 (Caspase-4); in series [2]) were 935 µM and 28 µM, respectively. This compound yielded a Ki in series [1] of 1.4 µM.

With `O=C(O)CC(NC(=O)OCc1ccccc1)C(=O)CNS(=O)(=O)CCc1cccc2ccccc12` (stereo not shown) [Example 2h, 3-Benzyloxycarbonylamino-5-(2-naphthalen-1-yl-ethanesulfonylamino)-4-oxo-pentanoic acid], the IC50 on Ich-2 (Caspase-4) is 199 µM; in series [2], 55.6 µM. In series [1], this compound gave a Ki of 16 µM.
